# From patent publication US20250171438A1 (Agios Pharmaceuticals, Inc., priority 2022, published 2025)
# Molecular target: T1, human PAH with the R408W mutation (Homo sapiens, UniProt P00439, R408W)
# T1 construct: expressed in transfected cells
# T1 sequence (P00439 1-452 R408W): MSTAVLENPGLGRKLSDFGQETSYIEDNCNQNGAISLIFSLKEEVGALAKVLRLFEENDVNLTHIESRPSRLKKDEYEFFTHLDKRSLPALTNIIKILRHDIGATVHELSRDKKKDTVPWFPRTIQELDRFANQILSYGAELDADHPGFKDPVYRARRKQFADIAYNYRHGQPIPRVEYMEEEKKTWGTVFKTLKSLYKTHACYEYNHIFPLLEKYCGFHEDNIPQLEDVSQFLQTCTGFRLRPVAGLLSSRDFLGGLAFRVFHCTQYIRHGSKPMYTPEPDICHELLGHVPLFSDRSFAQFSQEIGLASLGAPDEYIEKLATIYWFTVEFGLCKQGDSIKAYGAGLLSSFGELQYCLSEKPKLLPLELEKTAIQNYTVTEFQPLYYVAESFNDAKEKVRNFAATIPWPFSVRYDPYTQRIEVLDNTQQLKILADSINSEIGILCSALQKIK
# Assay: Cell Based Phenylalanine Flux Assay
# Conditions: A375 cells expressing human R408W PAH; 24 hrs compound incubation; 13C-Tyrosine by LC-MS; average where tested multiple times; read-out: AC50
row,SMILES,AC50 [µM]
1,"O=C(CC1CC(F)C1)N1CCc2[nH]cnc2[C@H]1c1nc2c(F)cccc2s1 (stereo partly drawn) [Example 1649, (S)-1-(4-(4-fluorobenzo[d]thiazol-2-yl)-6,7-dihydro-1H-imidazo[4,5-c]pyridin-5(4H)-yl)-2-(3-fluorocyclobutyl)ethanone]",< 0.5
2,"O=C(CC1CC(F)C1)N1CCc2[nH]cnc2[C@@H]1c1nc2c(F)cccc2s1 (stereo partly drawn) [Example 1650, (R)-1-(4-(4-fluorobenzo[d]thiazol-2-yl)-6,7-dihydro-1H-imidazo[4,5-c]pyridin-5(4H)-yl)-2-(3-fluorocyclobutyl)ethanone]",1 to 5
3,"N#Cc1nc(N2CCC(F)CC2)oc1C(=O)N1CCc2[nH]cnc2[C@H]1c1nc2ccccc2s1 [Example 1651, (S)-5-(4-(benzo[d]thiazol-2-yl)-4,5,6,7-tetrahydro-1H-imidazo[4,5-c]pyridine-5-carbonyl)-2-(4-fluoropiperidin-1-yl)oxazole-4-carbonitrile]",0.5 to 1
4,"N#Cc1nc(N2CCC(F)CC2)oc1C(=O)N1CCc2[nH]cnc2[C@@H]1c1nc2ccccc2s1 [Example 1652, (R)-5-(4-(benzo[d]thiazol-2-yl)-4,5,6,7-tetrahydro-1H-imidazo[4,5-c]pyridine-5-carbonyl)-2-(4-fluoropiperidin-1-yl)oxazole-4-carbonitrile]",> 5
5,"O=C(c1cnc(-c2ccccn2)o1)N1CC2(CC2)c2[nH]cnc2[C@H]1c1nc2ccccc2s1 [Example 1653, (S)-(4′-(benzo[d]thiazol-2-yl)spiro[cyclopropane-1,7′-imidazo[4,5-c]pyridin]-5′(1′H,4′H,6′H)-yl)(2-(pyridin-2-yl)oxazol-5-yl)methanone]",0.5 to 1
6,"O=C(c1cnc(-c2ccccn2)o1)N1CC2(CC2)c2[nH]cnc2[C@@H]1c1nc2ccccc2s1 [Example 1654, (R)-(4′-(benzo[d]thiazol-2-yl)spiro[cyclopropane-1,7′-imidazo[4,5-c]pyridin]-5′(1′H,4′H,6′H)-yl)(2-(pyridin-2-yl)oxazol-5-yl)methanone]",1 to 5
7,"O=C(N1CCc2[nH]cnc2[C@H]1c1nc2c(F)cccc2s1)C(F)(F)C1(O)CCC1 [Example 1655, (S)-2,2-difluoro-1-(4-(4-fluorobenzo[d]thiazol-2-yl)-6,7-dihydro-1H-imidazo[4,5-c]pyridin-5(4H)-yl)-2-(1-hydroxycyclobutyl)ethanone]",0.5 to 1
8,"O=C(N1CCc2[nH]cnc2[C@@H]1c1nc2c(F)cccc2s1)C(F)(F)C1(O)CCC1 [Example 1656, (R)-2,2-difluoro-1-(4-(4-fluorobenzo[d]thiazol-2-yl)-6,7-dihydro-1H-imidazo[4,5-c]pyridin-5(4H)-yl)-2-(1-hydroxycyclobutyl)ethanone]",1 to 5
9,O=C(CC1(O)CCC1)N1CCc2[nH]cnc2[C@H]1c1nc2ccccc2s1 [Example 1657],< 0.5
10,"O=C(CC1(O)CCC1)N1CCc2[nH]cnc2[C@@H]1c1nc2ccccc2s1 [Example 1658, (R)-1-(4-(benzo[d]thiazol-2-yl)-6,7-dihydro-1H-imidazo[4,5-c]pyridin-5(4H)-yl)-2-(1-hydroxycyclobutyl)ethanone]",0.5 to 1
11,Cc1nc(CCN(C)C)oc1C(=O)N1CCc2[nH]cnc2[C@H]1c1nc2ccccc2s1 [Example 1659],1 to 5
12,"Cc1nc(CCN(C)C)oc1C(=O)N1CCc2[nH]cnc2[C@@H]1c1nc2ccccc2s1 [Example 1660, (R)-(4-(benzo[d]thiazol-2-yl)-6,7-dihydro-1H-imidazo[4,5-c]pyridin-5(4H)-yl)(2-(2-(dimethylamino)ethyl)-4-methyloxazol-5-yl)methanone]",> 5
13,"N#Cc1ncoc1C(=O)N1CCc2[nH]cnc2[C@H]1c1nc2c(F)cccc2s1 [Example 1661, (S)-5-(4-(4-fluorobenzo[d]thiazol-2-yl)-4,5,6,7-tetrahydro-1H-imidazo[4,5-c]pyridine-5-carbonyl)oxazole-4-carbonitrile]",0.5 to 1
14,"N#Cc1ncoc1C(=O)N1CCc2[nH]cnc2[C@@H]1c1nc2c(F)cccc2s1 [Example 1662, (R)-5-(4-(4-fluorobenzo[d]thiazol-2-yl)-4,5,6,7-tetrahydro-1H-imidazo[4,5-c]pyridine-5-carbonyl)oxazole-4-carbonitrile]",1 to 5
15,"N#Cc1ncoc1C(=O)N1CC2(CC2)c2[nH]cnc2[C@@H]1c1nc2ccccc2s1 [Example 1663, (R)-5-(4′-(benzo[d]thiazol-2-yl)-1′,4′,5′,6′-tetrahydrospiro[cyclopropane-1,7′-imidazo[4,5-c]pyridin]-5′-ylcarbonyl)oxazole-4-carbonitrile]",> 5
16,"N#Cc1ncoc1C(=O)N1CC2(CC2)c2[nH]cnc2[C@H]1c1nc2ccccc2s1 [Example 1664, (S)-5-(4′-(benzo[d]thiazol-2-yl)-1′,4′,5′,6′-tetrahydrospiro[cyclopropane-1,7′-imidazo[4,5-c]pyridin]-5′-ylcarbonyl)oxazole-4-carbonitrile]",1 to 5
17,O=C(c1oc(CCN2CC(F)C2)nc1C(F)(F)F)N1CCc2[nH]cnc2[C@H]1c1nc2c(F)cccc2s1 [Example 1665],< 0.5
18,"O=C(c1oc(CCN2CC(F)C2)nc1C(F)(F)F)N1CCc2[nH]cnc2[C@@H]1c1nc2c(F)cccc2s1 [Example 1666, (R)-(2-(2-(3-fluoroazetidin-1-yl)ethyl)-4-(trifluoromethyl)oxazol-5-yl)(4-(4-fluorobenzo[d]thiazol-2-yl)-6,7-dihydro-1H-imidazo[4,5-c]pyridin-5(4H)-yl)methanone]",< 0.5
19,"O=C(c1ocnc1C(F)(F)F)N1CC2(CC2)c2[nH]cnc2[C@@H]1c1nc2ccccc2s1 [Example 1667, (R)-(4′-(benzo[d]thiazol-2-yl)spiro[cyclopropane-1,7′-imidazo[4,5-c]pyridin]-5′(1′H,4′H,6′H)-yl)(4-(trifluoromethyl)oxazol-5-yl)methanone]",1 to 5
20,"O=C(c1ocnc1C(F)(F)F)N1CC2(CC2)c2[nH]cnc2[C@H]1c1nc2ccccc2s1 [Example 1668, (S)-(4′-(benzo[d]thiazol-2-yl)spiro[cyclopropane-1,7′-imidazo[4,5-c]pyridin]-5′(1′H,4′H,6′H)-yl)(4-(trifluoromethyl)oxazol-5-yl)methanone]",< 0.5
21,"O=C(c1ocnc1C1CC1)N1CC2(CC2)c2[nH]cnc2[C@H]1c1nc2ccccc2s1 [Example 1669, (S)-(4′-(benzo[d]thiazol-2-yl)spiro[cyclopropane-1,7′-imidazo[4,5-c]pyridin]-5′(1′H,4′H,6′H)-yl)(4-cyclopropyloxazol-5-yl)methanone]",< 0.5
22,"O=C(c1ocnc1C1CC1)N1CC2(CC2)c2[nH]cnc2[C@@H]1c1nc2ccccc2s1 [Example 1670, (R)-(4′-(benzo[d]thiazol-2-yl)spiro[cyclopropane-1,7′-imidazo[4,5-c]pyridin]-5′(1′H,4′H,6′H)-yl)(4-cyclopropyloxazol-5-yl)methanone]",1 to 5
23,Cc1nc(CCCN2CC(F)C2)oc1C(=O)N1CCc2[nH]cnc2[C@H]1c1nc2ccccc2s1 [Example 1671],0.5 to 1
24,"Cc1nc(CCCN2CC(F)C2)oc1C(=O)N1CCc2[nH]cnc2[C@@H]1c1nc2ccccc2s1 [Example 1672, (R)-(4-(benzo[d]thiazol-2-yl)-6,7-dihydro-1H-imidazo[4,5-c]pyridin-5(4H)-yl)(2-(3-(3-fluoroazetidin-1-yl)propyl)-4-methyloxazol-5-yl)methanone]",> 5
25,"N#Cc1nc(OCCC(F)(F)F)oc1C(=O)N1CCc2[nH]cnc2[C@@H]1c1nc2ccccc2s1 [Example 1673, (R)-5-(4-(benzo[d]thiazol-2-yl)-4,5,6,7-tetrahydro-1H-imidazo[4,5-c]pyridine-5-carbonyl)-2-(3,3,3-trifluoropropoxy)oxazole-4-carbonitrile]",> 5
26,"N#Cc1nc(OCCC(F)(F)F)oc1C(=O)N1CCc2[nH]cnc2[C@H]1c1nc2ccccc2s1 [Example 1674, (S)-5-(4-(benzo[d]thiazol-2-yl)-4,5,6,7-tetrahydro-1H-imidazo[4,5-c]pyridine-5-carbonyl)-2-(3,3,3-trifluoropropoxy)oxazole-4-carbonitrile]",0.5 to 1
27,CN(C)CCc1nc(C(F)(F)F)c(C(=O)N2CCc3[nH]cnc3[C@H]2c2nc3c(F)cccc3s2)o1 [Example 1675],< 0.5
28,"CN(C)CCc1nc(C(F)(F)F)c(C(=O)N2CCc3[nH]cnc3[C@@H]2c2nc3c(F)cccc3s2)o1 [Example 1676, (R)-(2-(2-(dimethylamino)ethyl)-4-(trifluoromethyl)oxazol-5-yl)(4-(4-fluorobenzo[d]thiazol-2-yl)-6,7-dihydro-1H-imidazo[4,5-c]pyridin-5(4H)-yl)methanone]",< 0.5
29,"CC(C)(O)c1ncc(C(=O)N2CC3(CC3)c3[nH]cnc3[C@H]2c2nc3ccccc3s2)o1 [Example 1677, (S)-(4′-(benzo[d]thiazol-2-yl)spiro[cyclopropane-1,7′-imidazo[4,5-c]pyridin]-5′(1′H,4′H,6′H)-yl)(2-(2-hydroxypropan-2-yl)oxazol-5-yl)methanone]",0.5 to 1
30,"CC(C)(O)c1ncc(C(=O)N2CC3(CC3)c3[nH]cnc3[C@@H]2c2nc3ccccc3s2)o1 [Example 1678, (R)-(4′-(benzo[d]thiazol-2-yl)spiro[cyclopropane-1,7′-imidazo[4,5-c]pyridin]-5′(1′H,4′H,6′H)-yl)(2-(2-hydroxypropan-2-yl)oxazol-5-yl)methanone]",1 to 5
